We go through 31 compounds from US9694016B2 (Novartis AG, priority 2013, dated 2017).

The target in the first experiment is b-Raf (V600E) (Homo sapiens (Human), UniProt P15056, V600E). Particulars: read-out: b-Raf IC-50.
Sequence of b-Raf (V600E) (P15056 whole entry V600E): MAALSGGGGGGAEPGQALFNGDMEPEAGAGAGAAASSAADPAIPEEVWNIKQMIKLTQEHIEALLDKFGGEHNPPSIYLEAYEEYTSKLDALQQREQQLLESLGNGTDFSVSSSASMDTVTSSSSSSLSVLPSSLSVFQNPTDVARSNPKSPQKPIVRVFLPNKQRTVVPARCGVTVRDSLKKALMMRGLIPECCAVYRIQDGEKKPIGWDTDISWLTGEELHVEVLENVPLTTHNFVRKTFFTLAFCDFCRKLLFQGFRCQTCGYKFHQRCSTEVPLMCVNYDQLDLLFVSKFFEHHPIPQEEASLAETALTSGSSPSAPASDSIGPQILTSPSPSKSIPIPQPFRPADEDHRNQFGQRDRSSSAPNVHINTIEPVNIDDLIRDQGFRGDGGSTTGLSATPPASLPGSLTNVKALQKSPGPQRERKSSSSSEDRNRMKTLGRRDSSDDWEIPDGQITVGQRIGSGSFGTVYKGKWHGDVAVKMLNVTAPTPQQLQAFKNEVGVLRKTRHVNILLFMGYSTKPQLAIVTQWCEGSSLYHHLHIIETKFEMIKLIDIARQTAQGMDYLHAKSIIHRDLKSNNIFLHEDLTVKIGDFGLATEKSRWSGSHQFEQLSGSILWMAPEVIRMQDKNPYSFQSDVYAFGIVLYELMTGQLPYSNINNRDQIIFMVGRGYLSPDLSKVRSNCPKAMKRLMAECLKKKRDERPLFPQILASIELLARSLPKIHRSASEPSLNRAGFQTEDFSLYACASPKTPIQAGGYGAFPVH
Turning to `CCOc1ncc(-c2cc(NC(=O)c3cnnc(C(F)(F)F)c3)cnc2C)cc1N1C2CCC1COC2` [Example 282, N-(5′-(3-oxa-8-azabicyclo[3.2.1]octan-8-yl)-6′-ethoxy-2-methyl-[3,3′-bipyridin]-5-yl)-6-(trifluoromethyl)pyridazine-4-carboxamide], the IC50 amounted to 53 nM.

Still in this experiment, the particulars now being: read-out: b-Raf IC-50; AlphaScreen, 60 min pre-incubation, 3 hours reaction.
As for `Cc1ncc(NC(=O)c2ccnc(S(C)(=O)=O)c2)cc1-c1cc(N2CCOCC2)n(C)c(=O)c1` [Example 504, N-(1′,2-dimethyl-6′-morpholino-2′-oxo-1′,2′-dihydro-[3,4′-bipyridin]-5-yl)-2-(methylsulfonyl)isonicotinamide], the IC50 is 21 nM. For `Cc1ncc(NC(=O)c2cccc(C(F)F)c2)cc1-c1cc(N2CCOCC2)nc(N2CC(O)C2)n1` [Example 770, 3-(difluoromethyl)-N-(5-(2-(3-hydroxyazetidin-1-yl)-6-morpholinopyrimidin-4-yl)-6-methylpyridin-3-yl)benzamide], the IC50 is 5.3 nM. Still for that read-out and setting: under `Cc1ccc(NC(=O)c2ccnc(C(C)(C)C#N)c2)cc1-c1cc(N2CC3CC(C2)O3)c(=O)n(C)c1` [Example 465, N-(3-(5-(6-oxa-3-azabicyclo[3.1.1]heptan-3-yl)-1-methyl-6-oxo-1,6-dihydropyridin-3-yl)-4-methylphenyl)-2-(2-cyanopropan-2-yl)isonicotinamide] stands 100 nM. In the case of `Cc1ccc(NC(=O)c2ccc(C(O)CO)c(C(F)(F)F)c2)cc1-c1cc(N2CCOCC2)c(=O)n(C)c1` (stereo not shown) [Example 460, 4-(1,2-dihydroxyethyl)-N-(4-methyl-3-(1-methyl-5-morpholino-6-oxo-1,6-dihydropyridin-3-yl)phenyl)-3-(trifluoromethyl)benzamide], the IC50 is 15.9 nM. The same measure, in the same setting: under `Cc1ncc(NC(=O)c2ccnc(C(C)(F)F)c2)cc1-c1cc(N2CCOC[C@H]2C)n(C)c(=O)c1` [Example 524, (R)-2-(1,1-difluoroethyl)-N-(1′,2-dimethyl-6′-(3-methylmorpholino)-2′-oxo-1′,2′-dihydro-[3,4′-bipyridin]-5-yl)isonicotinamide] stands 41.2 nM; under `CCNc1nc(-c2cc(NC(=O)c3ccnc(C4(C#N)CC4)c3)ccc2C)cc(N2CCOCC2)n1` [Example 708, 2-(1-cyanocyclopropyl)-N-(3-(2-(ethylamino)-6-morpholinopyrimidin-4-yl)-4-methylphenyl)isonicotinamide], 0.5 nM; under `Cc1ncc(NC(=O)c2cccc(C(F)(F)F)c2)cc1-c1cc(N2CCOCC2)nc(N(C)C)n1` [Example 760, N-(5-(2-(dimethylamino)-6-morpholinopyrimidin-4-yl)-6-methylpyridin-3-yl)-3-(trifluoromethyl)benzamide], 11.3 nM. For the compound `Cc1ccc(NC(=O)c2cc(C(F)(F)F)ccn2)cc1-c1cc(N2CCOCC2)c(OC2CCOCC2)nn1` [Example 580, N-(4-methyl-3-(5-morpholino-6-((tetrahydro-2H-pyran-4-yl)oxy)pyridazin-3-yl)phenyl)-4-(trifluoromethyl)picolinamide], the IC50 was determined as 0.5 nM. Same read-out and setting: next, `Cc1ccc(NC(=O)c2ccnc(C(C)(F)F)c2)cc1-c1cc(N2CCOC[C@H]2C)n(C)c(=O)c1` [Example 523, (R)-2-(1,1-difluoroethyl)-N-(4-methyl-3-(1-methyl-6-(3-methylmorpholino)-2-oxo-1,2-dihydropyridin-4-yl)phenyl)isonicotinamide]: 3.7 nM. `Cc1ccc(NC(=O)c2ccnc(N3CCC3)c2)cc1-c1cc(N2CCOCC2)c(=O)n(C)c1` [Example 454, 2-(azetidin-1-yl)-N-(4-methyl-3-(1-methyl-5-morpholino-6-oxo-1,6-dihydropyridin-3-yl)phenyl)isonicotinamide]: the IC50 stood at 1.9 nM. On to `Cc1ccc(NC(=O)c2cc(CN(C)C)cc(C(F)(F)F)c2)cc1-c1cc(N2CCOCC2)n(C)c(=O)c1` [Example 497, 3-((dimethylamino)methyl)-N-(4-methyl-3-(1-methyl-6-morpholino-2-oxo-1,2-dihydropyridin-4-yl)phenyl)-5-(trifluoromethyl)benzamide], for which the IC50 came to 2.8 nM.

As to `Cc1ccc(NC(=O)c2ccnc(C(C)(F)F)c2)cc1-c1cc(N2CCOCC2)c(OC(C)C)nn1` [Example 592, 2-(1,1-difluoroethyl)-N-(3-(6-isopropoxy-5-morpholinopyridazin-3-yl)-4-methylphenyl)isonicotinamide], the IC50 was 0.7 nM.

With `Cc1ncc(NC(=O)c2ccnc(C(C)(C)C#N)c2)cc1-c1cc(N2CCOCC2)nc(N[C@H](C)CO)n1` [Example 747, (R)-2-(2-cyanopropan-2-yl)-N-(5-(2-((1-hydroxypropan-2-yl)amino)-6-morpholinopyrimidin-4-yl)-6-methylpyridin-3-yl)isonicotinamide], the IC50 came to 19 nM.

In the case of `Cn1c(N2CCOCC2)cc(-c2cc(NC(=O)c3ccnc(C(C)(F)F)c3)cnc2Cl)cc1=O` [Example 513, N-(2-chloro-1′-methyl-6′-morpholino-2′-oxo-1′,2′-dihydro-[3,4′-bipyridin]-5-yl)-2-(1,1-difluoroethyl)isonicotinamide], the IC50 stood at 2.4 nM.

The same experiment, now with this note: read-out: b-Raf IC-50; AlphaScreen, 60 min pre-incubation, reaction 3 hours at room temperature.
Take `CNC(=O)c1ncc(-c2cc(NC(=O)c3ccnc(C(C)(F)F)c3)ccc2C)cc1N1CCOCC1` [Example 987, 5-(5-(2-(1,1-difluoroethyl)isonicotinamido)-2-methylphenyl)-N-methyl-3-morpholinopicolinamide]: the IC50 came out at 2.63 nM. Still for that read-out and setting: under `Cc1ncc(NC(=O)c2ccnc(C(C)C)c2)cc1-c1cc(N2CCOCC2)nc(N2CCOCC2)c1` [Example 1119, 2-isopropyl-N-(2-methyl-2′,6′-dimorpholino-[3,4′-bipyridin]-5-yl)isonicotinamide] stands 2 nM. In the case of `CCOc1ccc(-c2cc(NC(=O)c3ccnc(C(C)(C)F)c3)cnc2C)nc1N1CCOCC1` [Example 1027, N-(5-ethoxy-2′-methyl-6-morpholino-[2,3′-bipyridin]-5′-yl)-2-(2-fluoropropan-2-yl)isonicotinamide], the IC50 was 8.48 nM. Turning to `Cc1ccc(NC(=O)c2ccnc(S(C)(=O)=O)c2)cc1-c1cnc(OC(C)C)c(N2CCOCC2)c1` [Example 950, N-(3-(6-isopropoxy-5-morpholinopyridin-3-yl)-4-methylphenyl)-2-(methylsulfonyl)isonicotinamide], the IC50 is 0.47 nM. Turning to `Cc1ccc(NC(=O)c2ccnc(C3(C#N)CC3)c2)cc1-c1cc(N2CCOCC2)nc(N2CC(C)(O)C2)c1` [Example 1111, 2-(1-cyanocyclopropyl)-N-(3-(2-(3-hydroxy-3-methylazetidin-1-yl)-6-morpholinopyridin-4-yl)-4-methylphenyl)isonicotinamide], the IC50 was found to be 2.09 nM. As for `Cc1ncc(NC(=O)c2ccnc(C(C)(C)C#N)c2)cc1-c1cc(N2CCOCC2)nc(N2CC(C)(O)C2)c1` [Example 1108, 2-(2-cyanopropan-2-yl)-N-(2′-(3-hydroxy-3-methylazetidin-1-yl)-2-methyl-6′-morpholino-[3,4′-bipyridin]-5-yl)isonicotinamide], the IC50 is 20.4 nM.

`Cc1ccc(NC(=O)c2cncc(C(F)(F)F)c2)cc1-c1cnc(OCCO)c(N2CCOCC2)c1` [Example 1001, N-(3-(6-(2-hydroxyethoxy)-5-morpholinopyridin-3-yl)-4-methylphenyl)-5-(trifluoromethyl)nicotinamide]: the IC50 amounted to 1.36 nM.

Take `Cc1ccc(NC(=O)c2ccnc(C(C)(C)C#N)c2)cc1-c1nc2c(c(N3CCOCC3)n1)CNC2` [Example 866, 2-(2-cyanopropan-2-yl)-N-(4-methyl-3-(4-morpholino-6,7-dihydro-5H-pyrrolo[3,4-d]pyrimidin-2-yl)phenyl)isonicotinamide]: the IC50 came to 7.6 nM.

The same experiment, now with this note: read-out: b-Raf IC-50; Table 2; AlphaScreen, 3 hours reaction.
In the case of `CCOc1ncc(-c2cc(NC(=O)c3cnnc(C(C)(C)C#N)c3)cnc2C)cc1N1CCOCC1` [Example 287, 6-(2-cyanopropan-2-yl)-N-(6′-ethoxy-2-methyl-5′-morpholino-[3,3′-bipyridin]-5-yl)pyridazine-4-carboxamide], the IC50 amounted to 16.5 nM.

As to `Cn1cc(-c2cc(NC(=O)c3cccc(C(F)(F)F)c3)cnc2Cl)cc(N2CCOCC2)c1=O` [Example 407, N-(2-chloro-1′-methyl-5′-morpholino-6′-oxo-1′,6′-dihydro-[3,3-bipyridin]-5-yl)-3-(trifluoromethyl)benzamide], the IC50 was 1.4 nM. On the same count and under the same terms, under `CCOc1ncc(-c2cc(NC(=O)c3cnnc(C(F)(F)F)c3)ccc2C)cc1N1CCOCC1` [Example 280, N-(3-(6-ethoxy-5-morpholinopyridin-3-yl)-4-methylphenyl)-6-(trifluoromethyl)pyridazine-4-carboxamide] stands 1.1 nM; under `Cc1ccc(NC(=O)c2cc(C(C)C)on2)cc1-c1cc(N2CCOCC2)c(=O)n(C)c1` [Example 371, 5-isopropyl-N-(4-methyl-3-(1-methyl-5-morpholino-6-oxo-1,6-dihydropyridin-3-yl)phenyl)isoxazole-3-carboxamide], 0.8 nM; under `COc1ncc(-c2cc(NC(=O)c3ccnc(C(C)(C)C#N)c3)cnc2Cl)cc1N1CCOCC1` [Example 264, N-(2-chloro-6′-methoxy-5′-morpholino-[3,3′-bipyridin]-5-yl)-2-(2-cyanopropan-2-yl)isonicotinamide], 8.6 nM. On the same count and under the same terms, under `Cc1ccc(NC(=O)c2cn(C)nc2C)cc1-c1cc(N2CCOCC2)c(=O)n(C)c1` [Example 366, 1,3-dimethyl-N-(4-methyl-3-(1-methyl-5-morpholino-6-oxo-1,6-dihydropyridin-3-yl)phenyl)-1H-pyrazole-4-carboxamide] stands 100 nM; under `Cc1ccc(C(=O)Nc2cccc(C(F)(F)F)c2)cc1-c1cc(N2CCOCC2)ccn1` [Example 64, 4-methyl-3-(4-morpholinopyridin-2-yl)-N-(3-(trifluoromethyl)phenyl)benzamide], 0.9 nM. On to `CCOc1ncc(-c2cc(NC(=O)c3ccnc(C(F)F)c3)cnc2C)cc1N1CCOCC1` [Example 247, 2-(difluoromethyl)-N-(6′-ethoxy-2-methyl-5′-morpholino-[3,3′-bipyridin]-5-yl)isonicotinamide], for which the IC50 worked out at 1.1 nM.
